Results: PubChem BioAssay AID330 (DTP/NCI, 2004)
“And” between values parts separate entries of the source, which are not always exact repeats. Equal entries are not always repeated. Toxic doses and inconclusive results are not listed.

Test system: P388 leukemia ip, CD2F1 mice, survival T/C
Assay: NCI In Vivo Anticancer Drug Screen. Data for tumor model P388 Leukemia (intraperitoneal) in CD2F1 (CDF1) mice
Settings: endpoint: median survival time, higher = longer survival
Method in brief: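 Mice carrying the transplanted tumor received test compound or vehicle. Survival was recorded in each group, and the value is the treated-group measurement divided by that of the vehicle-treated control group.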

[1] = dose: 50.0 mg/kg/injection, schedule: Q01DX005 (ip), vehicle: saline
[2] = dose: 100.0 mg/kg/injection, schedule: Q04DX003 (ip), vehicle: Klucel (hydroxypropylcellulose) (HPC)
[3] = dose: 50.0 mg/kg/injection, schedule: Q01DX009 (ip), vehicle: saline with Tween-80
[4] = dose: 100.0 mg/kg/injection, schedule: Q01DX009 (ip), vehicle: saline with Tween-80
[5] = dose: 200.0 mg/kg/injection, schedule: Q01DX009 (ip), vehicle: saline with Tween-80
[6] = dose: 50.0 mg/kg/injection, schedule: Q01DX005 (ip), vehicle: Klucel (hydroxypropylcellulose) (HPC)
[7] = dose: 25.0 mg/kg/injection, schedule: Q01DX009 (ip), vehicle: saline with Tween-80
[8] = dose: 120.0 mg/kg/injection, schedule: Q01DX005 (ip), vehicle: saline with Tween-80
[9] = dose: 240.0 mg/kg/injection, schedule: Q01DX005 (ip), vehicle: saline with Tween-80
[10] = dose: 60.0 mg/kg/injection, schedule: Q01DX005 (ip), vehicle: saline with Tween-80
[11] = dose: 100.0 mg/kg/injection, schedule: Q01DX005 (ip), vehicle: Klucel (hydroxypropylcellulose) (HPC)
[12] = dose: 200.0 mg/kg/injection, schedule: Q01DX005 (ip), vehicle: Klucel (hydroxypropylcellulose) (HPC)

For `CN1C(=O)C=CC1=O`, the T/C (dose: 0.5 mg/kg/injection, schedule: Q01DX009 (ip), vehicle: saline) was 96 % of control, the T/C (dose: 1.0 mg/kg/injection, schedule: Q01DX009 (ip), vehicle: saline) was 103 % of control and the T/C (dose: 2.0 mg/kg/injection, schedule: Q01DX009 (ip), vehicle: saline) was 100 % of control. For the same compound, the T/C (dose: 4.0 mg/kg/injection, schedule: Q01DX009 (ip), vehicle: saline) was 101 % of control.

`C=C1C(=O)O[C@H]2CC(C)C3C[C@@H](O)OC(O)[C@]3(C)C[C@@H]12` (stereo partly specified) was tested, and the T/C (dose: 2.38 mg/kg/injection, schedule: Q01DX005 (ip), vehicle: Klucel (hydroxypropylcellulose) (HPC)) was 101 % of control, the T/C (dose: 4.75 mg/kg/injection, schedule: Q01DX005 (ip), vehicle: Klucel (hydroxypropylcellulose) (HPC)) was 111 % of control and the T/C (dose: 9.5 mg/kg/injection, schedule: Q01DX005 (ip), vehicle: Klucel (hydroxypropylcellulose) (HPC)) was 102 % of control.

`CC(=O)[OH+]c1c(Br)cc(Br)cc1C(=O)[O-].CC(=O)[OH+]c1c(Br)cc(Br)cc1C(=O)[O-].[Cu+2]` was tested, and the T/C (dose: 12.5 mg/kg/injection, schedule: Q01DX005 (ip), vehicle: saline with Tween-80) was 101 % of control, the T/C (dose: 25.0 mg/kg/injection, schedule: Q01DX005 (ip), vehicle: saline with Tween-80) was 100 % of control and the T/C [1] was 102 % of control.

In the case of `Cc1cc2cc(Cl)c(CN)cc2[nH]1`, the T/C (dose: 25.0 mg/kg/injection, schedule: Q04DX003 (ip), vehicle: Klucel (hydroxypropylcellulose) (HPC)) is reported as 97 % of control, the T/C (dose: 50.0 mg/kg/injection, schedule: Q04DX003 (ip), vehicle: Klucel (hydroxypropylcellulose) (HPC)) is reported as 102 % of control and the T/C [2] is reported as 105 % of control and 107 % of control.

`C/C(=N\O)c1ccccn1` was tested, and the T/C (dose: 25.0 mg/kg/injection, schedule: Q01DX009 (ip), vehicle: water) was 100 % of control, the T/C (dose: 50.0 mg/kg/injection, schedule: Q01DX009 (ip), vehicle: water) was 98 % of control and the T/C (dose: 100.0 mg/kg/injection, schedule: Q01DX009 (ip), vehicle: water) was 98 % of control. For the same compound, the T/C (dose: 200.0 mg/kg/injection, schedule: Q01DX009 (ip), vehicle: water) was 100 % of control and the T/C (dose: 400.0 mg/kg/injection, schedule: Q01DX009 (ip), vehicle: water) was 106 % of control.

With `C/C1=C\CC(O)/C(C)=C/CC2=CCC(C(C)C)C2(C)CC1` (stereo unspecified) the T/C (dose: 4.0 mg/kg/injection, schedule: Q01DX009 (ip), vehicle: Klucel (hydroxypropylcellulose) (HPC)) was 101 % of control, the T/C (dose: 8.0 mg/kg/injection, schedule: Q01DX009 (ip), vehicle: Klucel (hydroxypropylcellulose) (HPC)) was 101 % of control and the T/C (dose: 16.0 mg/kg/injection, schedule: Q01DX009 (ip), vehicle: Klucel (hydroxypropylcellulose) (HPC)) was 102 % of control. For the same compound, the T/C (dose: 32.0 mg/kg/injection, schedule: Q01DX009 (ip), vehicle: Klucel (hydroxypropylcellulose) (HPC)) was 102 % of control.

`CCCCCCC1=NC(C)(C)CO1` was tested, and the T/C [3] was 100 % of control, the T/C (dose: 50.0 mg/kg/injection, schedule: Q04DX003 (ip), vehicle: saline with Tween-80) was 100 % of control and the T/C [4] was 104 % of control. The T/C (dose: 100.0 mg/kg/injection, schedule: Q04DX003 (ip), vehicle: saline with Tween-80) was 100 % of control, the T/C [5] was 100 % of control and the T/C (dose: 200.0 mg/kg/injection, schedule: Q04DX003 (ip), vehicle: saline with Tween-80) was 109 % of control.

`CCOP(=O)(O)OCC.[Ga]` was tested, and the T/C (dose: 100.0 mg/kg/injection, schedule: Q04DX002 (ip), vehicle: saline with Tween-80) was 106 % of control, the T/C (dose: 200.0 mg/kg/injection, schedule: Q04DX002 (ip), vehicle: saline with Tween-80) was 103 % of control and the T/C (dose: 400.0 mg/kg/injection, schedule: Q04DX002 (ip), vehicle: saline with Tween-80) was 97 % of control.

For `C=CC[C@]1(S(=O)(=O)c2ccccc2)[C@@H](N(C)C)C[C@@H](O[Si](C)(C)C(C)(C)C)[C@@H]1/C=C/[C@H](CCCCC)O[Si](C)(C)C(C)(C)C`, the T/C (dose: 12.5 mg/kg/injection, schedule: Q01DX005 (ip), vehicle: Klucel (hydroxypropylcellulose) (HPC)) was 107 % of control, the T/C (dose: 25.0 mg/kg/injection, schedule: Q01DX005 (ip), vehicle: Klucel (hydroxypropylcellulose) (HPC)) was 111 % of control and the T/C [6] was 107 % of control.

For `COc1cc(CC2NCCc3cc(O)ccc32)cc(OC)c1OC` (stereo unspecified), the T/C (dose: 50.0 mg/kg/injection, schedule: Q01DX009 (ip), vehicle: Klucel (hydroxypropylcellulose) (HPC)) was 103 % of control, the T/C (dose: 100.0 mg/kg/injection, schedule: Q01DX009 (ip), vehicle: Klucel (hydroxypropylcellulose) (HPC)) was 99 % of control and the T/C (dose: 200.0 mg/kg/injection, schedule: Q01DX009 (ip), vehicle: Klucel (hydroxypropylcellulose) (HPC)) was 102 % of control.

`CCCOC(=O)CP(=O)(O)O` was tested, and the T/C [3] was 101 % of control, the T/C [4] was 95 % of control and the T/C [5] was 87 % of control.

With `COC(=O)C1=C(\N2CCOCC2)CCCCC/C=C\1C(=O)OC` the T/C [7] was 99 % of control and 106 % of control, the T/C [3] was 100 % of control and 103 % of control and the T/C [4] was 103 % of control and 107 % of control. For the same compound, the T/C [5] was 88 % of control and 95 % of control.

For `Cc1cnc(N/N=C/c2c(CO)cnc(C)c2O)s1`, the T/C (dose: 7.5 mg/kg/injection, schedule: Q01DX005 (ip), vehicle: Klucel (hydroxypropylcellulose) (HPC)) was 99 % of control, the T/C (dose: 15.0 mg/kg/injection, schedule: Q01DX005 (ip), vehicle: Klucel (hydroxypropylcellulose) (HPC)) was 94 % of control and the T/C (dose: 30.0 mg/kg/injection, schedule: Q01DX005 (ip), vehicle: Klucel (hydroxypropylcellulose) (HPC)) was 86 % of control. For the same compound, the T/C [8] was 93 % of control and the T/C [9] was 112 % of control.

In the case of `COC(=O)CCCOc1ccc(N(CCCl)CCCl)cc1`, the T/C [2] is reported as 194 % of control and the T/C (dose: 200.0 mg/kg/injection, schedule: Q04DX003 (ip), vehicle: Klucel (hydroxypropylcellulose) (HPC)) is reported as 223 % of control.

With `C#CC(C(C)C)N(CCO)CCCC` (stereo unspecified) the T/C [10] was 105 % of control, the T/C [8] was 104 % of control and the T/C [9] was 102 % of control.

With `COc1cc2c(cc1OC)C1CC(OC(=O)c3ccccc3)(c3nccc4cc(OC)c(OC)cc34)CCN1CC2` (stereo unspecified) the T/C (dose: 12.5 mg/kg/injection, schedule: Q01DX009 (ip), vehicle: saline with Tween-80) was 97 % of control, the T/C [7] was 93 % of control and the T/C [3] was 95 % of control and 97 % of control.

In the case of `Cc1ccc(S(=O)(=O)NC(=O)N2CCc3ccccc32)cc1`, the T/C [6] is reported as 105 % of control, the T/C [11] is reported as 105 % of control and the T/C [12] is reported as 93 % of control.

For `CC12CCC3C(CCC4=CC(OC5OC(CO)C(O)C(O)C5O)CCC43C=O)C1(O)CCC2c1ccc(=O)oc1` (stereo unspecified), the T/C (dose: 0.12 mg/kg/injection, schedule: Q01DX009 (ip), vehicle: saline + alcohol) was 103 % of control, the T/C (dose: 0.25 mg/kg/injection, schedule: Q01DX009 (ip), vehicle: saline + alcohol) was 106 % of control and the T/C (dose: 0.5 mg/kg/injection, schedule: Q01DX009 (ip), vehicle: saline + alcohol) was 106 % of control. For the same compound, the T/C (dose: 1.0 mg/kg/injection, schedule: Q01DX009 (ip), vehicle: saline + alcohol) was 103 % of control.

`Cc1cccc2c1NC(O)c1cccn1C2=O` (stereo unspecified) was tested, and the T/C (dose: 0.1 mg/kg/injection, schedule: Q01DX005 (ip), vehicle: water) was 98 % of control, the T/C (dose: 0.2 mg/kg/injection, schedule: Q01DX005 (ip), vehicle: water) was 93 % of control and the T/C (dose: 0.4 mg/kg/injection, schedule: Q01DX005 (ip), vehicle: water) was 93 % of control. For the same compound, the T/C (dose: 0.8 mg/kg/injection, schedule: Q01DX005 (ip), vehicle: water) was 98 % of control, the T/C (dose: 1.6 mg/kg/injection, schedule: Q01DX005 (ip), vehicle: water) was 93 % of control and the T/C (dose: 5.0 mg/kg/injection, schedule: Q01DX005 (ip), vehicle: distilled water + Tween-80) was 103 % of control. The T/C (dose: 10.0 mg/kg/injection, schedule: Q01DX005 (ip), vehicle: distilled water + Tween-80) was 94 % of control, the T/C (dose: 20.0 mg/kg/injection, schedule: Q01DX005 (ip), vehicle: distilled water + Tween-80) was 98 % of control and the T/C (dose: 40.0 mg/kg/injection, schedule: Q01DX005 (ip), vehicle: distilled water + Tween-80) was 95 % of control. For the same compound, the T/C (dose: 80.0 mg/kg/injection, schedule: Q01DX005 (ip), vehicle: distilled water + Tween-80) was 94 % of control.

`NC1=NN(S(=O)(=O)c2ccccc2)CC1` was tested, and the T/C [6] was 94 % of control, the T/C [11] was 99 % of control and the T/C [12] was 98 % of control.

`CCN(CC)CCCC(C)n1c2nc(=O)[nH]c(=O)c-2nc2cc(Cl)ccc21` (stereo unspecified) was tested, and the T/C (dose: 12.5 mg/kg/injection, schedule: Q01DX005 (ip), vehicle: saline) was 98 % of control, the T/C (dose: 25.0 mg/kg/injection, schedule: Q01DX005 (ip), vehicle: saline) was 104 % of control and the T/C [1] was 117 % of control and 119 % of control.

In the case of `Nc1nc(N)c2nc(C(=O)c3ccccc3)c(-c3ccccc3)nc2n1`, the T/C [3] is reported as 92 % of control, the T/C [4] is reported as 97 % of control and the T/C [5] is reported as 90 % of control.

With `O=C1NC2(CN3CCC2CC3)C(=O)N1CN(Cc1ccccc1)c1ccccc1` (stereo unspecified) the T/C [10] was 99 % of control, the T/C [8] was 99 % of control and the T/C [9] was 99 % of control.
